Measured values as given in patent publication US20250171431A1, “HETEROCYCLIC INHIBITORS OF IGF-1R FOR TREATMENT OF DISEASE” (HORIZON THERAPEUTICS IRELAND DAC, priority 2023, published 2025).

Tests used:
[1] = target: T1, IGF-1R (Homo sapiens (Human), UniProt P08069); experiment: Example B-1: IGF-1R Assay (PC3 cells, IGF1 stimulation, AlphaLISA); assay type: cell-based; conditions: 200 ng/mL IGF1 stimulation, read-out: Biological Activity against IGF-1R IC50
Outline: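 Readout is AlphaLISA signal from lysed PC3 cells, expressed as % inhibition versus vehicle and EC80 controls and banded by IC50. Before lysis, the cells were starved of serum for 2 h, exposed to 3× serially diluted compound for 2 h, and stimulated for 30 min with 200 ng/mL IGF1 (final).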
Target sequence in this assay (P08069 31-1367): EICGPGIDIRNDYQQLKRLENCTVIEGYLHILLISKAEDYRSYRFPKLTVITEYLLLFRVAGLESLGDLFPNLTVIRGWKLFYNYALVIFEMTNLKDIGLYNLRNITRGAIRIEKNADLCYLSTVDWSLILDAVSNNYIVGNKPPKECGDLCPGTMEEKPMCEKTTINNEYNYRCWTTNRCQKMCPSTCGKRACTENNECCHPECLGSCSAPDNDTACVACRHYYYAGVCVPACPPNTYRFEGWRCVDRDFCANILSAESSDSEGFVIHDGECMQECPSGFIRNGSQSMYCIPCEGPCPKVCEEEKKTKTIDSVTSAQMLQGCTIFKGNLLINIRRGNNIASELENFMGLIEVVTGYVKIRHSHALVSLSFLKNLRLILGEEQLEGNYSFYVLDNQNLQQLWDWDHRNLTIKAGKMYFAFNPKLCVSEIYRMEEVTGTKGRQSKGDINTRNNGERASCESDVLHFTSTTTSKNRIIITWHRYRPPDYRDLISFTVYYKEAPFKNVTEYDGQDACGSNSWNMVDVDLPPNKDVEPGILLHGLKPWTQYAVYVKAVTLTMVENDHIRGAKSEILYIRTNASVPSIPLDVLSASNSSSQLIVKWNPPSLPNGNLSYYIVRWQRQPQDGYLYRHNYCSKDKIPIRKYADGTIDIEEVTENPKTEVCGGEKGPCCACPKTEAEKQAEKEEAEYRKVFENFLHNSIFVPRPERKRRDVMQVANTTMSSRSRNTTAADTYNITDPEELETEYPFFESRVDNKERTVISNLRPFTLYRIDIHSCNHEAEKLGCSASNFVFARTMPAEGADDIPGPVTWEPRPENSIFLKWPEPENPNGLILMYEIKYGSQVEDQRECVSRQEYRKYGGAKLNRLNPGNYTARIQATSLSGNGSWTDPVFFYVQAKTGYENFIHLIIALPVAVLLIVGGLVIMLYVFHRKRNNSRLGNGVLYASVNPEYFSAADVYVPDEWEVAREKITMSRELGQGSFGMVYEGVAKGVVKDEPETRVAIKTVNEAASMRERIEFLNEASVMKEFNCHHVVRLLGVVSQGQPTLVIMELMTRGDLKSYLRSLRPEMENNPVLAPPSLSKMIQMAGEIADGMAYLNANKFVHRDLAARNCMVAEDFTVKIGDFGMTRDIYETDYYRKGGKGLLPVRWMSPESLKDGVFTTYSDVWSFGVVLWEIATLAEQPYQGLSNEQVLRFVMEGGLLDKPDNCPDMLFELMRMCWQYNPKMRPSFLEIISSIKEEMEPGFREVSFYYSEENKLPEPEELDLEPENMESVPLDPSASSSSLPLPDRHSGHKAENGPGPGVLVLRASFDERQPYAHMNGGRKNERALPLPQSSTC

[2] = target: T1, IGF-1R; experiment: Example B-2: IGF-1R Assay (PathHunter cell lines, EC80 agonist challenge); assay type: cell-based; conditions: read-out: IC50 (Biological Activity against IGF-1R)
Procedure: PathHunter cell lines were expanded from freezer stocks according to standard procedures. Cells were seeded in a total volume of 20 μL into white walled, 384-well microplates and incubated for the appropriate time prior to testing.
Cells are pre-incubated with compound followed by EC80 agonist challenge as follows: • 1. Intermediate dilution of sample stocks was performed to generate 5× sample in assay buffer. • 2. 5 μL of 5× sample was added to cells and incubated at 37° C. for 60 minutes. Vehicle concentration was 1%. • 3. 5 μL of 6×EC80 agonist in assay buffer was added to the cells and incubated at room temperature for 3 hours.
Assay signal was generated through a single addition of 12.5 or 15 μL (50% v/v) of PathHunter Detection reagent cocktail for agonist and antagonist assays respectively, followed by a one hour incubation at room temperature. Microplates were read following signal generation with a PerkinElmer Envision™ instrument for chemilumine-scent signal detection.
Compound activity was analyzed using CBIS data analysis suite (ChemInnovation, CA). Percentage inhibition was calculated using the following formula: % Inhibition=100%×(1−(mean RLU of test sample−mean RLU of vehicle control)/(mean RLU of EC80 control−mean RLU of vehicle control)). The activity for representative examples of the invention is shown in the following table, wherein A: IC50≤500 nM; B: 500 nM<IC50≤2 μM; C: […]≤10 μM; D: IC50>[…].
Target sequence in this assay (P08069 31-1367, species assumed): as the sequence (P08069 31-1367) above

Row | Compound | IC50 [1] | IC50 [2]
1 | COc1cc(Nc2nccc(Nc3cnc4ccc(Cl)cc4c3)n2)ccc1O[C@H]1C[C@H](N(C)C)C1 [Compound 195, 4-(6-chloro-3-quinolylamino)-2-{3-methoxy-4-[(1r,3r)-3-(dimethylamino)cyclobutoxy]phenylamino}pyrimidine] | ≤ 500 nM | ≤ 500 nM
2 | COc1cc(Nc2nccc(Nc3cnc4ccc(Cl)cc4c3)n2)ccc1OCCCN1CCCCC1 [Compound 196, 4-(6-chloro-3-quinolylamino)-2-[3-methoxy-4-(3-piperidinopropoxy)phenylamino]pyrimidine] | ≤ 500 nM | ≤ 500 nM
3 | COc1cc(Nc2nccc(Nc3cnc4c(c3)OCCO4)n2)ccc1O[C@H]1C[C@@H](N(C)C)C1 [Compound 200, 4-(2,3-dihydro-1,4-dioxa-5-aza-7-naphthylamino)-2-{3-methoxy-4-[(1s,3s)-3-(dimethylamino)cyclobutoxy]phenylamino}pyrimidine] | ≤ 500 nM | ≤ 500 nM
4 | COc1cc(Nc2nccc(Nc3cnc4ccccc4c3)n2)ccc1O[C@H]1C[C@@H](N(C)C)C1 [Compound 204, 2-{3-methoxy-4-[(1s,3s)-3-(dimethylamino)cyclobutoxy]phenylamino}-4-(3-quinolylamino)pyrimidine] | ≤ 500 nM | ≤ 500 nM
5 | COc1cc(C2CCN(CC#N)CC2)ncc1Nc1nccc(Nc2cc3cccc(F)c3[nH]c2=O)n1 [Compound 211, (4-{5-[4-(8-fluoro-2-oxo-1,2-dihydro-3-quinolylamino)-2-pyrimidinylamino]-4-methoxy-2-pyridyl}-1-piperidyl)acetonitrile] | ≤ 500 nM | ≤ 500 nM
6 | COc1nc(C2CCN(CC#N)CC2)ccc1Nc1nccc(Nc2cc3cccc(F)c3[nH]c2=O)n1 [Compound 212, (4-{5-[4-(8-fluoro-2-oxo-1,2-dihydro-3-quinolylamino)-2-pyrimidinylamino]-6-methoxy-2-pyridyl}-1-piperidyl)acetonitrile] | ≤ 500 nM | 500 to 2000 nM
7 | COc1cc(C2CCN(CC#N)CC2)ccc1Nc1nccc(Nc2cc3cccc(F)c3[nH]c2=O)n1 [Compound 213, (4-{4-[4-(8-fluoro-2-oxo-1,2-dihydro-3-quinolylamino)-2-pyrimidinylamino]-3-methoxyphenyl}-1-piperidyl)acetonitrile] | ≤ 500 nM | ≤ 500 nM
8 | COc1cc(C2CCOCC2)ncc1Nc1nccc(Nc2cc3cccc(F)c3[nH]c2=O)n1 [Compound 214, 8-fluoro-3-{2-[4-methoxy-6-(tetrahydro-2H-pyran-4-yl)-3-pyridylamino]-4-pyrimidinylamino}-1,2-dihydro-2-quinolinone] | ≤ 500 nM | ≤ 500 nM
9 | COc1cc([C@H]2CC[C@](C)(O)CC2)ccc1Nc1nccc(Nc2cc3cccc(F)c3[nH]c2=O)n1 [Compound 215, 8-fluoro-3-(2-{2-methoxy-4-[(1s,4s)-4-hydroxy-4-methylcyclohexyl]phenylamino}-4-pyrimidinylamino)-1,2-dihydro-2-quinolinone] | ≤ 500 nM | ≤ 500 nM
10 | COc1cc([C@H]2CC[C@@](C)(O)CC2)ccc1Nc1nccc(Nc2cc3cccc(F)c3[nH]c2=O)n1 [Compound 216, 8-fluoro-3-(2-{2-methoxy-4-[(1r,4r)-4-hydroxy-4-methylcyclohexyl]phenylamino}-4-pyrimidinylamino)-1,2-dihydro-2-quinolinone] | ≤ 500 nM | ≤ 500 nM
11 | COc1cc(N2CCN(CC(F)F)CC2)ncc1Nc1nccc(Nc2cc3cccc(F)c3[nH]c2=O)n1 [Compound 217, 3-(2-{6-[4-(2,2-difluoroethyl)-1-piperazinyl]-4-methoxy-3-pyridylamino}-4-pyrimidinylamino)-8-fluoro-1,2-dihydro-2-quinolinone] | 500 to 2000 nM | > 10000 nM
12 | COc1cc(N2CCNC(C(F)F)C2)ncc1Nc1nccc(Nc2cc3cccc(F)c3[nH]c2=O)n1 (stereo not drawn) [Compound 218, 3-(2-{6-[3-(difluoromethyl)-1-piperazinyl]-4-methoxy-3-pyridylamino}-4-pyrimidinylamino)-8-fluoro-1,2-dihydro-2-quinolinone] | ≤ 500 nM | 500 to 2000 nM
13 | COc1cc(Nc2nccc(Nc3cc4cccc(F)c4[nH]c3=O)n2)ccc1C1CCOCC1 [Compound 219, 8-fluoro-3-{2-[3-methoxy-4-(tetrahydro-2H-pyran-4-yl)phenylamino]-4-pyrimidinylamino}-1,2-dihydro-2-quinolinone] | ≤ 500 nM | > 10000 nM
14 | COc1cc(C2CCOCC2)ccc1Nc1nccc(Nc2cc3cccc(F)c3[nH]c2=O)n1 [Compound 220, 8-fluoro-3-{2-[2-methoxy-4-(tetrahydro-2H-pyran-4-yl)phenylamino]-4-pyrimidinylamino}-1,2-dihydro-2-quinolinone] | ≤ 500 nM | 500 to 2000 nM
15 | COc1cc(N2CCNC3(CC3)C2)ncc1Nc1nccc(Nc2cc3cccc(F)c3[nH]c2=O)n1 [Compound 221, 3-(2-{6-(4,7-diaza-7-spiro[2.5]octyl)-4-methoxy-3-pyridylamino}-4-pyrimidinylamino)-8-fluoro-1,2-dihydro-2-quinolinone] | ≤ 500 nM | 500 to 2000 nM
16 | COc1cc(Nc2nccc(Nc3cc4cccc(F)c4[nH]c3=O)n2)cnc1C1CCNCC1 [Compound 223, 8-fluoro-3-{2-[5-methoxy-6-(4-piperidyl)-3-pyridylamino]-4-pyrimidinylamino}-1,2-dihydro-2-quinolinone] | ≤ 500 nM | 500 to 2000 nM
17 | COc1nc(C2CCOCC2)ccc1Nc1nccc(Nc2cc3cccc(F)c3[nH]c2=O)n1 [Compound 224, 8-fluoro-3-{2-[2-methoxy-6-(tetrahydro-2H-pyran-4-yl)-3-pyridylamino]-4-pyrimidinylamino}-1,2-dihydro-2-quinolinone] | ≤ 500 nM | 500 to 2000 nM
18 | COc1cc(Nc2nccc(Nc3cnc4c(F)c(F)ccc4c3)n2)cnc1O[C@H]1C[C@@H](N(C)C)C1 [Compound 291, 4-(7,8-difluoro-3-quinolylamino)-2-{5-methoxy-6-[(1s,3s)-3-(dimethylamino)cyclobutoxy]-3-pyridylamino}pyrimidine] | ≤ 500 nM | 500 to 2000 nM
19 | COc1cc(Nc2nccc(Nc3cnc4c(c3)OCCO4)n2)ccc1O[C@H]1C[C@H](N(C)C)C1 [Compound 357, 4-(2,3-dihydro-1,4-dioxa-5-aza-7-naphthylamino)-2-{3-methoxy-4-[(1r,3r)-3-(dimethylamino)cyclobutoxy]phenylamino}pyrimidine] | ≤ 500 nM | ≤ 500 nM
20 | COc1cc(N2CCN(C)CC2)ccc1Nc1nccc(Nc2cnc3ccc(Br)cc3c2)n1 [Compound 466, 4-(6-bromo-3-quinolylamino)-2-[2-methoxy-4-(4-methyl-1-piperazinyl)phenylamino] pyrimidine] | ≤ 500 nM | 500 to 2000 nM
21 | COc1cc(N2CCNC3(CC3)C2)ncc1Nc1nccc(Nc2cnc3ccc(Cl)cc3c2)n1 [Compound 496, 4-(6-chloro-3-quinolylamino)-2-{6-(4,7-diaza-7-spiro[2.5]octyl)-4-methoxy-3-pyridylamino}pyrimidine] | ≤ 500 nM | 500 to 2000 nM
22 | CN(C)CC1COc2cc(Nc3nccc(Nc4cnc5ccc(C(F)F)cc5c4)n3)ccc2O1 (stereo not drawn) [Compound 497, 4-[6-(difluoromethyl)-3-quinolylamino]-2-{2-[(dimethylamino)methyl]-2,3-dihydro-1,4-benzodioxin-6-ylamino}pyrimidine] | ≤ 500 nM | ≤ 500 nM
23 | CN(C)CC(=O)N1CCc2cc(Nc3nccc(Nc4cnc5cc(F)c(F)cc5c4)n3)cnc21 [Compound 498, 1-{5-[4-(6,7-difluoro-3-quinolylamino)-2-pyrimidinylamino]-1,7-diaza-1-indanyl}-2-(dimethylamino)-1-ethanone] | 500 to 2000 nM | 500 to 2000 nM
24 | CN(C)CC1COc2cc(Nc3nccc(Nc4cnc5cc(F)c(F)cc5c4)n3)cnc2O1 (stereo not drawn) [Compound 499, 4-(6,7-difluoro-3-quinolylamino)-2-{3-[(dimethylamino)methyl]-2,3-dihydro-1,4-dioxa-5-aza-7-naphthylamino}pyrimidine] | 500 to 2000 nM | 500 to 2000 nM
25 | CN(C)CC1COc2ncc(Nc3nccc(Nc4cnc5ccc(Cl)cc5c4)n3)cc2O1 (stereo not drawn) [Compound 500, 4-(6-chloro-3-quinolylamino)-2-{2-[(dimethylamino)methyl]-2,3-dihydro-1,4-dioxa-5-aza-7-naphthylamino}pyrimidine] | 2000 to 10000 nM | 500 to 2000 nM
26 | c1ccc2ncc(Nc3ccnc(Nc4ccc5c(ccn5CC5CCOCC5)c4)n3)cc2c1 [Compound 501, 4-(3-quinolylamino)-2-{1-[(tetrahydro-2H-pyran-4-yl)methyl]-5-indolylamino}pyrimidine] | 500 to 2000 nM | 500 to 2000 nM
27 | c1ccc2ncc(Nc3ccnc(Nc4ccc5ccn(CC6CCCC6)c5c4)n3)cc2c1 [Compound 502, 2-[1-(cyclopentylmethyl)-6-indolylamino]-4-(3-quinolylamino)pyrimidine] | ≤ 500 nM | ≤ 500 nM
